Assay results from patent US9796713B2, “Tricyclic compounds as alpha-7 nicotinic acetylcholine receptor ligands” (BRISTOL-MYERS SQUIBB COMPANY, priority 2014, dated 2017).

Target: T1, α-7 nicotinic ACh receptor ion channel (Rattus norvegicus, UniProt Q05941)
T1 construct: expressed in transfected cells
Experiment: FLIPR Ca2+-sensitive fluorescence assay of α7 nicotinic acetylcholine receptor channel function (agonist activity) in HEK 293 cells
Format: cell-based
Settings: Ca2+ flux, HEK-293 cells expressing the channel
Method: I) α7 Nicotinic Acetycholine Receptor Binding. Membranes were prepared for binding using HEK293 cells stably expressing the rat α7 nicotinic acetycholine receptor (rat α7 nAChR). Cells were homogenized at 4° C. in hypotonic lysis buffer consisting of 10 mM Tris (pH 7.4), 5 mM EDTA and protease inhibitors and centrifuged at 32000×g for 20 minutes. The pellet was washed once in membrane wash buffer consisting of 50 mM Tris (pH 7.4), 1 mM EDTA and protease inhibitors and centrifuged at 32000×g for 20 minutes. This pellet was then resuspended in assay buffer consisting 50 mM KH2PO4 (pH 7.4 at 25° C.), 1 mM EDTA, 0.005% Triton-X 100 and 0.1% (v/v) Sigma Protease Inhibitor Cocktail. Aliquots were then frozen in dry ice/ethanol and kept at −80° C. until the day of the assay. II) A Ca^2+-Sensitive, Fluorescence-Based Assay α-7 for Nicotinic Acetylcholine Receptor Channel Function in Mammalian Cells (“FLIPR”). Summary: Lead compounds are evaluated for agonist activity at α-7, α3β4, α4αβ2, and α1β1δ1ε sub-types of nicotinic ACh receptor ion channels expressed in mammalian HEK 293 cells. Agonist potency and efficacy values are determined from kinetic fluorescence Ca^2+ influx measurements made using a 384 well FLIPR (Fluorescence Image Plate Reader). The utility of fluorescent indicators for measuring changes in intracellular divalent cation concentrations, particularly Ca^2+, for drug discovery endeavors is well documented (Rudiger, R., et al., Nature Reviews, 2003, 4:579-586; Gonzalez J. E., et al., Receptors and Channels, 2002, 8:283-295). In this assay, channel expressing HEK cell lines seeded in 384 well assay plates are loaded with a membrane permeant fluorescent Ca^2+ indicator dye, whose 510 nm green emission signal increases in response to elevation of intracellular Ca^2+ concentration. The basal fluorescence from the cells is monitored in real time, followed by the acute addition of test compounds. If the compound is an agonist at any of the non-selective cation channels, the latter open and allow the movement of extracellular Ca^2+ ions into the cell cytoplasm, where they bind to the Ca^2+ indicator dye, and produce an increase in fluorescence output signal, which is detected by a cooled CCD imaging camera.
Materials and Methods: Reagents: The acetomethoxy (AM) ester of the Ca^2+ indicator dye Fluo-4 was obtained from InVitrogen, (Carlsbad, Calif.). Acetylcholine and all buffer constituents were purchased from Sigma Chemical Company, St. Louis, Mo. G418 and Minimal Essential Medium were purchased from InVitrogen Life Technologies, Carlsbad, Calif. Fetal bovine serum was purchased from (InVitrogen, Carlsbad, Calif.).
Cell Culture: HEK-293 cells were grown in Minimal Essential Medium containing 10% (v/v) fetal bovine serum at 37° C. in a 5% CO2 incubator. HEK-293 cells stably expressing the ion channels were grown in the same medium with the addition of 500 μg/ml G418.
Ca^2+ flux assays of Ca^2+ channels expressed in HEK-293 cells: HEK-293 cells expressing the ion channels of interest were plated in 384 well, black-walled, clear-bottomed, poly-D-lysine coated plates at a density of ˜20,000 cells/well in 20 μl of Minimal Essential Medium containing 10% (v/v) fetal bovine serum and incubated for 2 days at 29° C. in a 5% CO2 incubator. Prior to assay, cells were loaded with the Fluo-4 AM ester. Cell loading was accomplished by removing the culture medium and replacing it with 30 μl/well of the AM ester of the dye (5 μM) mixed with Hanks Balanced Salt Solution (#14175-095) containing 20 mM HEPES, 2.5 mM probenecid, 0.5 mM CaCl2, 1 mM MgCl2 and 10 μM atropine. Dye loading was allowed to proceed for 90 minutes at room temperature at which time the dye loading solution was removed and replaced with 40 μl/well of Hanks buffer. Cells loaded with dye were loaded onto a FLIPR384 (Molecular Devices, Sunnyvale, Calif.). Fluo-4 dye was excited using the 488 nm line of an argon laser. Emission was filtered using a 540+/−30 nm bandpass filter. […]

T1 sequence (Q05941 23-502): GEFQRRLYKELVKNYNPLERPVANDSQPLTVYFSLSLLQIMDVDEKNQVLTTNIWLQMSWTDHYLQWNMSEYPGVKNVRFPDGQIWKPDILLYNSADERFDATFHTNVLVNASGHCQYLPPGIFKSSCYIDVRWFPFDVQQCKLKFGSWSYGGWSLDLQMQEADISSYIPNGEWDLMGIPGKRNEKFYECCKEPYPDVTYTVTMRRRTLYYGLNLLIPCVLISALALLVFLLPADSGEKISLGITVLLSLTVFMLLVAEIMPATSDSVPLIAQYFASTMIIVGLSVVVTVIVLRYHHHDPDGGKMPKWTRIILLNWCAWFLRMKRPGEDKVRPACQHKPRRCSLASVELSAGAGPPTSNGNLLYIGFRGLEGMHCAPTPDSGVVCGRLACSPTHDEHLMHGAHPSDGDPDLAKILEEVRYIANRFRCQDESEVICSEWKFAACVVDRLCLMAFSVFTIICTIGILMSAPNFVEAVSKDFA

O=C(c1n[nH]c2ccc(Br)cc12)N1C2CC3CCN(C2)CC31 (stereo not drawn) [Example 3, (5-bromo-1H-indazol-3-yl)(hexahydro-2,6-methanopyrrolo[2,3-c]pyridin-1(2H)-yl)methanone]
EC50 (Table 1): 0.7 µM

COc1ccc2c(C(=O)N3C4CC5CCN(C4)CC53)n[nH]c2c1 (stereo not drawn) [Example 9, (6-methoxy-1H-indazol-3-yl)(hexahydro-2,6-methanopyrrolo[2,3-c]pyridin-1(2H)-yl)methanone]
EC50 (Table 1): 0.26 µM

O=C(c1n[nH]c2cc(Cl)ccc12)N1C2CC3CCN(C2)CC31 (stereo not drawn) [Example 7, (6-chloro-1H-indazol-3-yl)(hexahydro-2,6-methanopyrrolo[2,3-c]pyridin-1(2H)-yl)methanone]
EC50 (Table 1): 0.057 µM

O=C(c1n[nH]c2c(Cl)cccc12)N1[C@@H]2C[C@H]3CC[N@@](C2)C[C@H]31 [Example 28, (7-chloro-1H-indazol-3-yl)((2R,3aR,6S,7aS)-hexahydro-2,6-methanopyrrolo[2,3-c]pyridin-1(2H)-yl)methanone]
EC50 (Table 3): 36 µM

Cn1nc(C(=O)N2C3CC4CCN(C3)CC42)c2ccccc21 (stereo not drawn) [Example 8, (Hexahydro-2,6-methanopyrrolo[2,3-c]pyridin-1(2H)-yl)(1-methyl-1H-indazol-3-yl)methanone]
EC50 (Table 1): > 100 µM

O=C(c1ccc(Cl)cc1)N1C2CC3CCN(C2)CC31 (stereo not drawn) [Example 13, (4-chlorophenyl)(hexahydro-2,6-methanopyrrolo[2,3-c]pyridin-1(2H)-yl)methanone]
EC50 (Table 1): > 100 µM

O=C(c1cc(C2CC2)[nH]n1)N1[C@H]2C[C@@H]3CC[N@](C2)C[C@@H]31 [Example 20, ((2S,3aS,6R,7aR)-hexahydro-2,6-methanopyrrolo[2,3-c]pyridin-1(2H)-yl)(5-cyclopropyl-1H-pyrazol-3-yl)methanone]
EC50 (Table 2): 26 µM

O=C(c1cc(C2CC2)[nH]n1)N1[C@@H]2C[C@H]3CC[N@@](C2)C[C@H]31 [Example 27, ((2R,3aR,6S,7aS)-hexahydro-2,6-methanopyrrolo[2,3-c]pyridin-1(2H)-yl)(5-cyclopropyl-1H-pyrazol-3-yl)methanone]
EC50 (Table 3): > 100 µM

O=C(c1cc2c(Cl)cccc2s1)N1C2CC3CCN(C2)CC31 (stereo not drawn) [Example 12, (4-chlorobenzo[b]thiophen-2-yl)(hexahydro-2,6-methanopyrrolo[2,3-c]pyridin-1(2H)-yl)methanone]
EC50 (Table 1): > 100 µM

COc1cccc2[nH]nc(C(=O)N3C4CC5CCN(C4)CC53)c12 (stereo not drawn) [Example 15, (4-methoxy-1H-indazol-3-yl)(hexahydro-2,6-methanopyrrolo[2,3-c]pyridin-1(2H)-yl)methanone]
EC50 (Table 1): > 50 µM

O=C(c1n[nH]c2ccccc12)N1[C@@H]2C[C@H]3CC[N@@](C2)C[C@H]31 [Example 33, ((2R,3aR,6S,7aS)-hexahydro-2,6-methanopyrrolo[2,3-c]pyridin-1(2H)-yl)(1H-indazol-3-yl)methanone]
EC50 (Table 3): 0.15 µM

O=C(c1noc2ccccc12)N1[C@@H]2C[C@H]3CC[N@@](C2)C[C@H]31 [Example 29, benzo[d]isoxazol-3-yl((2R,3aR,6S,7aS)-hexahydro-2,6-methanopyrrolo[2,3-c]pyridin-1(2H)-yl)methanone]
EC50 (Table 3): 3.1 µM

O=C(c1cc2ccccc2o1)N1C2CC3CCN(C2)CC31 (stereo not drawn) [Example 5, Benzofuran-2-yl(hexahydro-2,6-methanopyrrolo[2,3-c]pyridin-1(2H)-yl)methanone]
EC50 (Table 1): > 100 µM

O=C(c1n[nH]c2c(Cl)cccc12)N1[C@H]2C[C@@H]3CC[N@](C2)C[C@@H]31 [Example 22, (7-Chloro-1H-indazol-3-yl)((2S,3aS,6R,7aR)-hexahydro-2,6-methanopyrrolo[2,3-c]pyridin-1(2H)-yl)methanone]
EC50 (Table 2): 3.6 µM

O=C(c1nccc2ccccc12)N1[C@@H]2C[C@H]3CC[N@@](C2)C[C@H]31 [Example 25, ((2R,3aR,6S,7aS)-hexahydro-2,6-methanopyrrolo[2,3-c]pyridin-1(2H)-yl)(isoquinolin-1-yl)methanone]
EC50 (Table 3): 45 µM

O=C(c1cc2ccccc2s1)N1C2CC3CCN(C2)CC31 (stereo not drawn) [Example 6, Benzo[b]thiophen-2-yl(hexahydro-2,6-methanopyrrolo[2,3-c]pyridin-1(2H)-yl)methanone]
EC50 (Table 1): 51 µM

Cn1cc(C(=O)N2C3CC4CCN(C3)CC42)c2ccccc21 (stereo not drawn) [Example 14, (Hexahydro-2,6-methanopyrrolo[2,3-c]pyridin-1(2H)-yl)(1-methyl-1H-indol-3-yl)methanone]
EC50 (Table 1): > 100 µM

O=C(c1cc(-c2ccccc2)[nH]n1)N1[C@H]2C[C@@H]3CC[N@](C2)C[C@@H]31 [Example 19, ((2S,3aS,6R,7aR)-hexahydro-2,6-methanopyrrolo[2,3-c]pyridin-1(2H)-yl)(5-phenyl-1H-pyrazol-3-yl)methanone]
EC50 (Table 2): > 100 µM

O=C(c1n[nH]c2ccccc12)N1[C@H]2C[C@@H]3CC[N@](C2)C[C@@H]31 [Example 18, ((2S,3aS,6R,7aR)-hexahydro-2,6-methanopyrrolo[2,3-c]pyridin-1(2H)-yl)(1H-indazol-3-yl)methanone]
EC50 (Table 2): 0.055 µM

O=C(c1nsc2ccccc12)N1C2CC3CCN(C2)CC31 (stereo not drawn) [Example 11, Benzo[d]isothiazol-3-yl(hexahydro-2,6-methanopyrrolo[2,3-c]pyridin-1(2H)-yl)methanone]
EC50 (Table 1): 7.1 µM

Cc1ccc2c(C(=O)N3[C@H]4C[C@@H]5CC[N@](C4)C[C@@H]53)n[nH]c2c1 [Example 23, (6-methyl-1H-indazol-3-yl)((2S,3aS,6R,7aR)-hexahydro-2,6-methanopyrrolo[2,3-c]pyridin-1(2H)-yl)methanone]
EC50 (Table 2): 0.039 µM

O=C(c1n[nH]c2cc(Cl)ccc12)N1[C@@H]2C[C@H]3CC[N@@](C2)C[C@H]31 [Example 16, (6-chloro-1H-indazol-3-yl)((2R,3aR,6S,7aS)-hexahydro-2,6-methanopyrrolo[2,3-c]pyridin-1(2H)-yl)methanone]
EC50 (Table 3): 0.086 µM

O=C(c1n[nH]c2cc(F)ccc12)N1[C@H]2C[C@@H]3CC[N@](C2)C[C@@H]31 [Example 21, (6-fluoro-1H-indazol-3-yl)((2S,3aS,6R,7aR)-hexahydro-2,6-methanopyrrolo[2,3-c]pyridin-1(2H)-yl)methanone]
EC50 (Table 2): 0.08 µM

Cc1ccc2c(C(=O)N3[C@@H]4C[C@H]5CC[N@@](C4)C[C@H]53)n[nH]c2c1 [Example 30, (6-methyl-1H-indazol-3-yl)((2R,3aR,6S,7aS)-hexahydro-2,6-methanopyrrolo[2,3-c]pyridin-1(2H)-yl)methanone]
EC50 (Table 3): 0.19 µM

O=C(c1n[nH]c2ncccc12)N1[C@H]2C[C@@H]3CC[N@](C2)C[C@@H]31 [Example 24, ((2S,3aS,6R,7aR)-hexahydro-2,6-methanopyrrolo[2,3-c]pyridin-1(2H)-yl)(1H-pyrazolo[3,4-b]pyridin-3-yl)methanone]
EC50 (Table 2): 1.3 µM

O=C(c1n[nH]c2ccc(Cl)cc12)N1C2CC3CCN(C2)CC31 (stereo not drawn) [Example 2, (5-chloro-1H-indazol-3-yl)(hexahydro-2,6-methanopyrrolo[2,3-c]pyridin-1(2H)-yl)methanone]
EC50 (Table 1): 0.59 µM

COc1ccc2[nH]nc(C(=O)N3C4CC5CCN(C4)CC53)c2c1 (stereo not drawn) [Example 10, (5-methoxy-1H-indazol-3-yl)(hexahydro-2,6-methanopyrrolo[2,3-c]pyridin-1(2H)-yl)methanone]
EC50 (Table 1): > 100 µM
